We go through one compound from ChEMBL document CHEMBL1134969, “Synthesis and evaluation of water-soluble paclitaxel prodrugs” (Bioorg Med Chem Lett, 2002).

What is called IC50 is the point on the concentration scale where inhibition reaches its midpoint. Higher therefore signals weaker potency in that assay.

For data set [1], the system named is PG-49 cell line. The data set can be described thus: Cytotoxicity expressed as concentration required to inhibit cell growth by 50% on continuous exposure time of 72 hr in PG-49 cell line by MTT assay. It counts as functional, cell-based. Particulars: Homo sapiens, PG-49, 72 h. In general terms: Tetrazolium dyes change colour on reduction, which living cells bring about.

In data set [2] the test system is Mus musculus. Kind of data set: Tumor inhibition expressed as (average tumor weight of treated group/average tumor weight of control group)*100 at a dose of 10 mg/kg. The class given is functional.
Data set [3] in a line: Toxicity expressed in terms of number of toxic deaths after administration (8 mg/Kg) in athymic mice; out of 6 tested. Particulars: mouse, in vivo.
For data set [4], the system named is L1210. Kind of data set: Cytotoxicity expressed as concentration required to inhibit cell growth by 50% on continuous exposure time of 72 hr in L1210 cell line by MTT assay. The class given is functional, cell-based. To be noted: Mus musculus, L1210, 72 h.
Data set [5] concerns PG-49 cell line. Kind of data set: Cytotoxicity expressed as concentration required to inhibit cell growth by 50% on continuous exposure time of 96h in PG-49 cell line by MTT assay. The class given is functional, cell-based. To be noted: Homo sapiens, PG-49, 96 h.
The test system of data set [6] is L1210. Kind of data set: Cytotoxicity expressed as concentration required to inhibit cell growth by 50% on continuous exposure time of 96h in L1210 cell line by MTT assay. It counts as functional, cell-based. To be noted: Mus musculus, L1210, 96 h.
The nature of data set [7]: Toxicity expressed in terms of number of toxic deaths after administration (10 mg/Kg) in mice; out of 10 tested. To be noted: mouse, in vivo.
For data set [8], the system named is Mus musculus. Kind of data set: Percentage change in the body weight on day 20 after intravenous administration (10 mg/kg) against B16 melanoma (implanted subcutaneously in mice). It counts as functional.
The test system of data set [9] is Mus musculus. The data set can be described thus: Percentage change in the body weight on day 20 after intravenous administration (8 mg/Kg) against human breast cancer xenograph Bcap-37 (grown sc in athymic mice). It counts as functional.
For data set [10], the system named is Mus musculus. Kind of data set: Tumor inhibition expressed as (average tumor weight of treated group/average tumor weight of control group)*100 at a dose of (8 mg/kg). The class given is functional.

In the case of `CC(=O)O[C@H]1C(=O)[C@@]2(C)[C@H]([C@H](OC(=O)c3ccccc3)[C@]3(O)C[C@H](OC(=O)[C@H](O)[C@@H](NC(=O)c4ccccc4)c4ccccc4)C(C)=C1C3(C)C)[C@]1(OC(C)=O)CO[C@@H]1C[C@@H]2O` [PACLITAXEL], the IC50 with PG-49 cell line [1] amounted to 2.14 nM; with L1210 [4], 0.58 nM; in the data set on PG-49 cell line [5], 0.31 nM; with L1210 [6], 0.09 nM. Also, the values for the Tumor inhibition with Mus musculus [2] and in the data set with Mus musculus [10] were 71.4% and 78.02%, respectively. Also, the Toxicity worked out at 0 in [3] and 2 in [7]. Also, the results for the Body weight change in the data set with Mus musculus [8] and in the data set on Mus musculus [9] were 7.8% and 16.9%, respectively.
